Measured values reported in patent US20100254965A1, “Adenosine Signaling in Diagnosis, Treatment, and Prevention of Priapism and Erectile Dysfunction” (BOARD OF REGENTS ,THE UNIVERSITY OF TEXAS SYSTEM, priority 2006, published 2010).

Test system: corpus cavernosal smooth muscle cells (CCSM)
Assay: cAMP production in primary corpus cavernosal / penile vascular smooth muscle cells (CCSM, PVSM)
Format: cell-based, mouse
Settings: 10 min; for adenosine-mediated cAMP induction was blocked: CCSM, MRS1706 10 μM, ZM241385 50 nM
Experimental: PVSM were isolated and cultured from mouse penes. The cells were be switched to serum-free medium and treated with different concentrations of adenosine with or without A2B antagonist (MRS1706-1 μM) or A2A agonist (CGS-21680-1 μM) alone for 10 min. Then cellular extracts were collected and cAMP levels were measured using an ELISA kit. The data represent mean±SE.
Data are presented as mean±SE. *, p<0.01.
FIG. 18. Adenosine stimulated both cAMP and cGMP induction in corpus cavernosal smooth muscle cells (CCSM) via A2BR activation. (a) Adenosine receptor expression profile in purified primary CCSM. CCSM were purified from adult mouse penes. […] (b) CCSM were isolated and cultured from mouse penes. The cells were switched to serum-free medium and treated with different concentrations of adenosine with or without A2BR antagonist (MRS1706-10 μM), A2AR antagonist (ZM241385-50 nM) or A2AR agonist (CGS-21680-10 μM) alone for 10 min. Then cellular extracts were collected and cAMP levels were measured using an ELISA kit. The data represent mean±SE. *p<0.05, adenosine treated versus the untreated; **p<0.05, adenosine plus MRS1706 or ZM241385 versus the adenosine treated. (c) CCSM were isolated from penes of the wild type and A2BR-deficient mice and cultured with or without adenosine (100 μM), NECA (10 μM), a potent adenosine receptor agonist, forskolin (10 μM), an adenylyl cyclase agonist. After 10 min treatment, the cellular extracts were collected and cAMP levels were measured by using a commercial enzyme immunoassay kit (Amersham Pharmacia). N=4. *p<0.05, adenosine, forskolin and NECA treated versus the untreated control. (d) Corpus cavernosal strips (CCS) were isolated from wild type and A2BR-deficient mice and treated with different concentrations of adenosine in the presence or absence of L-NAME (100 μM) or MRS1706 (10 μM). 10 min after treatment, cellular extracts were collected and cGMP levels were measured by using a commercial enzyme immunoassay kit (Amersham Pharmacia). Data are expressed as mean±SE. *p<0.05, adenosine treated versus the control; **p<0.05, adenosine treated with MRS1706 versus the adenosine treated; ***p<0.05, CCS of A2BR-deficient mice treated with adenosine versus the CCS of wild type mice treated with adenosine. N=6-7. (e) CCSM were isolated from wild type and A2BR deficient mice and cultured with or without adenosine (100 μM), NECA (10 μM), a potent adenosine receptor agonist, forskolin (10 μM), an adenylyl cyclase agonist, or diethylamine-NONOate (DEA/NO) (10 μM). After 10 min treatment, the cellular extracts were collected and cAMP levels were measured by using a commercial enzyme immunoassay kit (Amersham Pharmacia). N=4. *p<0.05, DEA/NO treated versus to the untreated control. (f) Both cAMP and cGMP induction contribute to adenosine-mediated decreased PE-induced phosphorylation of myosin light chain (MLC). CCSM and CCS were isolated and cultured with the treatment of phenylephrine (PE-10 μM) in the presence or absence of adenosine (100 μM) or L-NAME (100 μM). 10 min after treatment, cellular extracts were isolated and western blot analysis were performed. The total MLC and phosphorylated MLC at S20 were detected by specific antibodies.
Isolation of primary corpus cavernosal smooth muscle cells (CCSM). Corpus cavernosum tissues were dissected as described above. Cavernosal tissue was washed in PBS and minced into […] pieces. Segments were incubated in 5-10 ml enzyme solutions containing 0.02% collagenase A (0.272 U/mg protein, Roche, Mannheim, Germany) and 0.5% elastase (3.73 U/mg protein, Cell system, St Katharinen, Germany) in a 75 mm flask at 37° C. for 6 hours. Enzymatic digestion was terminated by adding 10 ml DMEM supplemented with 10% fetal calf serum (FCS). […]

| Compound | adenosine-mediated cAMP induction was blocked | cAMP production (CCSM/PVSM of A2BR deficient (A2B-/-) mice) | cAMP production (CCSM/PVSM of A2BR deficient (A2B-/-) mice, listed as Adenosine) | cAMP production (wild type CCSM/PVSM, agent alone) | cAMP production (wild type CCSM/PVSM, agent alone, listed as Adenosine) |
| --- | --- | --- | --- | --- | --- |
| CCCn1c(=O)c2[nH]c(-c3ccc(OCC(=O)Nc4ccc(C(C)=O)cc4)cc3)nc2n(CCC)c1=O [MRS1706] | blocked |  |  |  |  |
| Nc1nc(NCCc2ccc(O)cc2)nc2nc(-c3ccco3)nn12 [ZM241385] | not |  |  |  |  |
| Nc1ncnc2c1ncn2[C@@H]1O[C@H](CO)[C@@H](O)[C@H]1O [adenosine] |  | failed to induce cAMP production | essentially no effect on cAMP levels | induced cAMP | elevate cAMP levels |
